# Data published in US20210355421A1, “DEVICES AND METHODS FOR PRODUCTION OF CELL AGGREGATES” (priority 2007, published 2021).
# “Also recorded” adds a separate entry of the source.
# Assays:
# hESC [1] = assay: forced aggregation of hESC with or without ROCK inhibitor Y-27632; assay type: cell-based, human
# Procedure: • 1. […] The precise degree of pre-differentiation that is optimal will vary with the cell line in question, exact maintenance techniques, etc. If EB coherence is still insufficient after treatment as above, pre-differentiation can be started earlier (i.e the duration increased) or (if using BMPs), BMP concentration can be increased. […] Prepare low-adsorbance well plates: • a) dispense 40 μL (for 96-well plates) or 25 μL (for 384-well plates) of 5% Pluronic acid in PBS into the plates • b) incubate 30 minutes at room temperature • c) remove pluronic acid solution by pipetting or by inverted centrifugation in the device described and illustrated in FIG. 1 or 2 for 1 minute at 240×g • 3. Prepare a single-cell suspension by treating the hESC culture with TrypIE for 5 minutes, and washing the cells off with X-Vivo10 • 4. Count cells, spin down and re-suspend to 1 million cells/mL in X-Vivo or other medium of interest. Cells may all derive from a single culture, or cells from different sources may be combined. • 5. […] In the absence of both, no aggregates were formed (N.D.—size not determined). […]
# hESC [2] = assay: aggregate formation from hESC cultured on Matrigel after BMP pre-differentiation; assay type: cell-based, human; details: 50 ng/mL BMP4 pre-differentiation, control population did not form aggregates
# Procedure: The precise degree of pre-differentiation that is optimal will vary with the cell line in question, exact maintenance techniques, etc. […] Prepare low-adsorbance well plates: • a) dispense 40 μL (for 96-well plates) or 25 μL (for 384-well plates) of 5% Pluronic acid in PBS into the plates • b) incubate 30 minutes at room temperature • c) remove pluronic acid solution by pipetting or by inverted centrifugation in the device described and illustrated in FIG. 1 or 2 for 1 minute at 240×g • 3. Prepare a single-cell suspension by treating the hESC culture with TrypIE for 5 minutes, and washing the cells off with X-Vivo10 • 4. Count cells, spin down and re-suspend to 1 million cells/mL in X-Vivo or other medium of interest. Cells may all derive from a single culture, or cells from different sources may be combined. • 5. […]
Compound,"aggregate size and symmetry (hESC [1]; 10 μM Y-27632, hESC cultured on Matrigel, 2,000 cells per well, without or with 48 hours pre-differentiation in serum-containing medium)","SISO-aggregate formation / aggregate stability (hESC [1]; 10 μM Y-27632 added to cell suspension immediately prior to dispensing, hESC on Matrigel in MEF-conditioned medium, without or with pre-differentiation)",stable aggregate formation after BMP4 pre-differentiation (hESC [2])
C[C@@H](N)[C@H]1CC[C@H](C(=O)Nc2ccncc2)CC1 [Y-27632],substantially increased aggregate size and symmetry; also recorded: size and symmetry of aggregates are improved,sizeable aggregates resulted,
BMP4: bone morphogenetic protein used as growth factor for pre-differentiation,,,Aggregates formed from the pre-differentiated population
